One may read the EC50 as the concentration at which the effect is half-maximal. As usually defined, the inhibition is the percentage by which the read-out fell short of the control. The low end stands for a weak effect, the high end for a strong effect. A word on the solubility: it is the concentration that dissolves in the medium under given conditions. What is called IC50 is the midpoint of a concentration-inhibition curve.

Values after ≈ are worked out from the molar mass of the structure shown.

One data set has as its system Xenopus laevis. Kind of data set: Anesthetic activity in Xenopus laevis tadpoles assessed as loss of righting reflexes. The class given is functional, organism-based. Conditions: Tadpole.
The target of data set [1] is T1, Gamma-aminobutyric acid receptor subunit alpha-1 (Homo sapiens) (UniProt P14867).
T1 sequence (whole entry): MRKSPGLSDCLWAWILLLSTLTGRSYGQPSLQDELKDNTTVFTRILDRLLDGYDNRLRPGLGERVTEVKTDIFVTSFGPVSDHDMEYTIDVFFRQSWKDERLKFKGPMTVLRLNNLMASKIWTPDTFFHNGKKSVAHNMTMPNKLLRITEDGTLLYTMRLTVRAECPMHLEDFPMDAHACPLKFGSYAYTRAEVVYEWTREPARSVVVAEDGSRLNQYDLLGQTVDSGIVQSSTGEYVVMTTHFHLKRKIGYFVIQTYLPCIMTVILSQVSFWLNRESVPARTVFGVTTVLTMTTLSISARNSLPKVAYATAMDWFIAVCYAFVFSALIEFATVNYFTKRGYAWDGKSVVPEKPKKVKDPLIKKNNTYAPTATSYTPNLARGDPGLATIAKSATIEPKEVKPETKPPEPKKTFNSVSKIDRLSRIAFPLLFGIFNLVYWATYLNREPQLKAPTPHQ
Conditions: HEK293S, 200 uM.

Data set [2] addresses T2, Gamma-aminobutyric acid receptor subunit beta-3 (Homo sapiens) (UniProt P28472).
T2 sequence (whole entry): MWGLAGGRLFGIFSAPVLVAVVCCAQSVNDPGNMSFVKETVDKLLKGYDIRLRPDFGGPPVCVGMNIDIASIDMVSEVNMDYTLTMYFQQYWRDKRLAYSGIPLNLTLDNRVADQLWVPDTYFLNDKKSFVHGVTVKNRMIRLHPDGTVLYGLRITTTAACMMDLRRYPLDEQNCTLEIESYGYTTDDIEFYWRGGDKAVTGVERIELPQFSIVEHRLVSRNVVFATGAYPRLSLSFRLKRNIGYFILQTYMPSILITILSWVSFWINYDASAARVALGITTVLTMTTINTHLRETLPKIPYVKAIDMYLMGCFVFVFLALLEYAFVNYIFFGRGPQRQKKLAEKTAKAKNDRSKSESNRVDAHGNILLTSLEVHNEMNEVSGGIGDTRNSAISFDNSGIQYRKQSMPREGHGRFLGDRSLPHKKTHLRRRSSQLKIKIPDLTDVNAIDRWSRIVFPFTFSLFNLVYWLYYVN
Conditions: HEK293S, 200 uM.

The target of data set [3] is GABA-A receptor; alpha-1/beta-2/gamma-2 (Homo sapiens) (UniProt P14867+P47870+P18507). Conditions: Oocyte, 80 uM.
Data set [4] in a line: Stability in 0.01 M Tris/HCl buffer at pH 7.4 at 4 degC days by HPLC. The format is physicochemical.
The nature of data set [5]: Aqueous solubility in 0.01 M Tris/HCl buffer at pH 7.4 by HPLC. The format is physicochemical.
Data set [6] deals with T3, Gamma-aminobutyric acid receptor subunit beta-3 (Homo sapiens, UniProt P28472).
T3 sequence (P28472 whole entry): T2 sequence (whole entry)
Nature of the data set: biochemical.

As to `C=CC[C@@]1(c2cccc(C3(C(F)(F)F)N=N3)c2)C(=O)NC(=O)N(C)C1=O`, the half-maximal effective concentration (EC50) with Xenopus laevis came to 3.7 µM. For the same molecule, the inhibition in data set [1] and in data set [2] was more than 90% each time.

Turning to `C=CC[C@]1(c2cccc(C3(C(F)(F)F)N=N3)c2)C(=O)NC(=O)N(C)C1=O`, the EC50 with Xenopus laevis was found to be 38 µM. This molecule gave an inhibition in data set [3] of 40%.

`C=CCC1(c2cccc(C3(C(F)(F)F)N=N3)c2)C(=O)NC(=O)N(C)C1=O` (racemic) showed a Stability in data set [4] of 2.5 days. The same molecule yielded a solubility in data set [5] (buffer) of 80 µM (≈ 29.3 µg/mL).

As for `CCC1(c2ccccc2)C(=O)NC(=O)N(C)C1=O` (stereo not given) [MEPHOBARBITAL], the solubility in data set [5] (0.01 M Tris/HCl buffer, read-out: solubility) was determined as 600 µM (≈ 148 µg/mL).

For the molecule `CCCC(C)C1(CC)C(=O)NC(=O)NC1=O` (stereo not given) [PENTOBARBITAL], the EC50 with Xenopus laevis was determined as 65 µM. In data set [6], this molecule came in with an IC50 of 88 µM.

Source of the values: ChEMBL document CHEMBL2163302, “Allyl m-trifluoromethyldiazirine mephobarbital: an unusually potent enantioselective and photoreactive barbiturate general anesthetic” (J Med Chem, 2012).
